Source: patent US20170157301A1, “LEOLIGIN DERIVATIVES AS SMOOTH MUSCLE CELL PROLIFERATION INHIBITORS” (TECHNISCHE UNIVERSITAET WIEN, priority 2014, published 2017)

Tests used:
SMCs in relation to ECs = test: activity ratio: efficiency towards SMCs / efficiency towards ECs; assay type: cell-based; settings: for a.r. code: activity ratio class, order in Table 1 follows the calculated values
Protocol: For determination of vascular SMC proliferation, 0.5×10^4 viable rat aortic SMCs per well were seeded in SMC growth medium (DMEM/F12 medium with 20% serum, 30 μg/mL Gentamicin and 15 ng/mL Amphotericin) in 96-well plates. 24 h later, the medium was removed, the cells were washed once with SMC starvation medium (DMEM/F12 medium with 0.1% serum, 0.2% BSA, 30 μg/mL Gentamicin and 15 ng/mL Amphotericin) and incubated in starvation medium for further 24 h.
The quiescent cells were then pretreated for 30 min with the test compounds and induced to proliferate with 20 ng/mL platelet-derived growth factor (PDGF). Unstimulated cells were utilized for normalization and estimation of the basal level of proliferation. The final concentration of the solvent vehicle, dimethyl sulfoxide (DMSO), was the same (0.1%) in all wells. 48 h later, the SMC proliferation was quantified by resazurin dye conversion for 2 h as previously described (H. Joa et al., J. Nat. Prod. 74(6), 1513-6 (2011)).
For determination of endothelial cell proliferation, 0.5×10^4 HUVECtert immortalized human umbilical vein endothelial cells (H. B. Schiller et al., Mol. Biol. Cell. 20(3), 745-756 (2009)) were seeded in 96-well plates for 24 h in HUVEC Complete Medium (EBM™ growth medium supplemented with 10% fetal bovine serum, EBM™ SingleQuots (Lonza, Basel, Switzerland), 100 U/mL benzylpenicillin, 100 μg/mL streptomycin, and 1% amphotericin). Afterwards, the medium was exchanged with fresh HUVEC Complete Medium and cells were treated with the indicated compounds for 48 h. After the end of the incubation period, the medium was removed, the cells were washed once with 200 μL/well PBS, and treated with 150 μL HUVEC Complete Medium containing 10 μg/mL resazurin. 2 h later, the fluorescence was measured at a wavelength of 580 nm, with excitation wavelength 535 nm in a 96-well plate reader (Tecan GENios Pro; Tecan Group Ltd., Mannedorf, Switzerland).
In every case, the percentage of viable cells was subtracted from 1, in order to obtain a measure of efficiency of the test compounds towards each particular type of cells, and subsequently, the efficiency quotient towards SMCs and ECs was calculated and taken as the “activity ratio” and thus as a measure of selective efficiency of each test compound towards SMCs in relation to ECs. For example, the synthetic Leoligin with the bio ID 2418 prepared in Comparative Example 27 as compound 10-22 gave the following results:
Due to the usual fluctuations in determining surviving cells, which amount to approximately ±10%, and due to the relatively strong resulting fluctuations in calculating quotients—especially if the inhibitory effect of said novel compounds towards ECs is very poor—said threshold value of 1.50 for the activity ratio, as already mentioned above, was introduced.
In the following, a table listing every compound prepared in examples and comparative Examples for which an activity ratio (a.r.) of >1.0 was determined, is given.

SMCs [1] = settings: cited from earlier work
SMCs [2] = test: IC50 of Leoligin for SMCs (A. Knolz, Master's Thesis, University of Innsbruck, 2008); assay type: cell-based
ECs = settings: cited from earlier work
[3] = system: HUVECtert immortalized human umbilical vein endothelial cells; test: endothelial cell proliferation (resazurin); assay type: cell-based
rat aortic SMCs = test: vascular SMC proliferation (PDGF-induced, resazurin conversion); assay type: cell-based

SMILES: COc1ccc(C[C@H]2CO[C@H](c3ccc(F)cc3)[C@H]2COC(=O)C2CCCC2)cc1OC [Example 29, ((2S,3R,4R)-4-(3,4-dimethoxybenzyl)-2-(4-fluorophenyl)tetrahydrofuran-3-yl)-methyl cyclopentanecarboxylate]
- a.r. code (SMCs in relation to ECs): A (a.r. ≧ 1.50)

SMILES: COc1ccc([C@H]2OC[C@H](Cc3ccc(C(C)(C)C)cc3)[C@@H]2COC(=O)C2CCCC2)cc1OC [Example 30, ((2S,3R,4R)-4-(4-(tert-butyl)benzyl)-2-(3,4-dimethoxyphenyl)tetrahydrofuran-3-yl)methyl cyclopentanecarboxylate]
- a.r. code (SMCs in relation to ECs): AA (a.r. ≧ 2.0)

SMILES: CCC(CC)C(=O)OC[C@H]1[C@@H](Cc2ccc(OC)c(OC)c2)CO[C@@H]1c1ccc(F)cc1 [Example 31, ((2S,3R,4R)-4-(3,4-dimethoxybenzyl)-2-(4-fluorophenyl)tetrahydrofuran-3-yl)-methyl 2-ethylbutanoate]
- a.r. code (SMCs in relation to ECs): A (a.r. ≧ 1.50)

SMILES: COc1ccc(C[C@H]2CO[C@H](c3ccc(F)cc3)[C@H]2COC(=O)CC(C)C)cc1OC [Example 32, ((2S,3R,4R)-4-(3,4-dimethoxybenzyl)-2-(4-fluorophenyl)tetrahydrofuran-3-yl)-methyl 3-methylbutanoate]
- a.r. code (SMCs in relation to ECs): AAA (a.r. ≧ 5.0)

SMILES: COc1ccc(C[C@H]2CO[C@H](c3ccc(F)cc3)[C@H]2COC(=O)C2CCC2)cc1OC [Example 33, ((2S,3R,4R)-4-(3,4-dimethoxybenzyl)-2-(4-fluorophenyl)tetrahydrofuran-3-yl)methyl cyclobutanecarboxylate]
- a.r. code (SMCs in relation to ECs): AA (a.r. ≧ 2.0)

SMILES: C/C=C(\C)C(=O)OC[C@H]1[C@@H](Cc2ccc(OC)c(OC)c2)CO[C@@H]1c1cc(OC)c(OC)c(OC)c1 [Example 34, (E)-((2S,3R,4R)-4-(3,4-dimethoxybenzyl)-2-(3,4,5-trimethoxyphenyl)tetra-hydrofuran-3-yl)methyl 2-methylbut-2-enoate]
- a.r. code (SMCs in relation to ECs): AAA (a.r. ≧ 5.0)

SMILES: COc1ccc(C[C@H]2CO[C@H](c3cc(OC)c(OC)c(OC)c3)[C@H]2COC(=O)C2=CCCC2)cc1OC [Example 35, ((2S,3R,4R)-4-(3,4-dimethoxybenzyl)-2-(3,4,5-trimethoxyphenyl)tetrahydro-furan-3-yl)methyl cyclopent-1-enecarboxylate]
- a.r. code (SMCs in relation to ECs): AA (a.r. ≧ 2.0)

SMILES: COc1ccc(C[C@H]2CO[C@H](c3cc(OC)c(OC)c(OC)c3)[C@H]2COC(=O)c2ccccc2)cc1OC [Example 36, ((2S,3R,4R)-4-(3,4-dimethoxybenzyl)-2-(3,4,5-trimethoxyphenyl)tetrahydro-furan-3-yl)methyl benzoate]
- a.r. code (SMCs in relation to ECs): A (a.r. ≧ 1.50)

SMILES: CCCC(=O)OC[C@H]1[C@@H](Cc2ccc(OC)c(OC)c2)CO[C@@H]1c1cc(OC)c(OC)c(OC)c1 [Example 37, ((2S,3R,4R)-4-(3,4-dimethoxybenzyl)-2-(3,4,5-trimethoxyphenyl)tetrahydro-furan-3-yl)methyl butyrate]
- a.r. code (SMCs in relation to ECs): AAA (a.r. ≧ 5.0)

SMILES: COc1ccc(C[C@H]2CO[C@H](c3cc(OC)c(OC)c(OC)c3)[C@H]2COC(=O)C(C)C)cc1OC [Example 38, ((2S,3R,4R)-4-(3,4-dimethoxybenzyl)-2-(3,4,5-trimethoxyphenyl)tetrahydro-furan-3-yl)methyl isobutyrate]
- a.r. code (SMCs in relation to ECs): AAA (a.r. ≧ 5.0)

SMILES: COc1ccc(C[C@H]2CO[C@H](c3cc(OC)c(OC)c(OC)c3)[C@H]2COC(=O)C2CCCCC2)cc1OC [Example 39, ((2S,3R,4R)-4-(3,4-dimethoxybenzyl)-2-(3,4,5-trimethoxyphenyl)tetrahydro-furan-3-yl)methyl cyclohexanecarboxylate]
- a.r. code (SMCs in relation to ECs): A (a.r. ≧ 1.50)

SMILES: COc1ccc(C[C@H]2CO[C@H](c3cc(OC)c(OC)c(OC)c3)[C@H]2COC(=O)C2CCCC2)cc1OC [Example 40, ((2S,3R,4R)-4-(3,4-dimethoxybenzyl)-2-(3,4,5-trimethoxyphenyl)tetrahydro-furan-3-yl)methyl cyclopentanecarboxylate]
- a.r. code (SMCs in relation to ECs): AA (a.r. ≧ 2.0)

SMILES: COc1ccc(C[C@H]2CO[C@H](c3cc(OC)c(OC)c(OC)c3)[C@H]2COC(=O)C2CC2)cc1OC [Example 41, ((2S,3R,4R)-4-(3,4-dimethoxybenzyl)-2-(3,4,5-trimethoxyphenyl)tetrahydro-furan-3-yl)methyl cyclopropanecarboxylate]
- a.r. code (SMCs in relation to ECs): AA (a.r. ≧ 2.0)

SMILES: C=CCOC[C@H]1[C@@H](Cc2ccc(OC)c(OC)c2)CO[C@@H]1c1ccc(OC)c(OC)c1 [Example 42, (2S,3R,4R)-3-((allyloxy)methyl)-4-(3,4-dimethoxybenzyl)-2-(3,4-dimethoxy-phenyl)tetrahydrofuran]
- a.r. code (SMCs in relation to ECs): AAA (a.r. ≧ 5.0)

SMILES: C#CCOC[C@H]1[C@@H](Cc2ccc(OC)c(OC)c2)CO[C@@H]1c1ccc(OC)c(OC)c1 [Example 43, (2S,3R,4R)-4-(3,4-dimethoxybenzyl)-2-(3,4-dimethoxyphenyl)-3-((prop-2-yn-1-yloxy)methyl)tetrahydrofuran]
- a.r. code (SMCs in relation to ECs): A (a.r. ≧ 1.50)

SMILES: C/C=C(/C)C(=O)OC[C@H]1[C@@H](Cc2ccc(OC)c(OC)c2)CO[C@@H]1c1ccc(OC)c(OC)c1 [Leoligin, (Z)-((2S,3R,4R)-4-(3,4-dimethoxybenzyl)-2-(3,4-dimethoxyphenyl)tetrahydro-furan-3-yl)methyl 2-methylbut-2-enoate]
- IC50 (SMCs [1]): 54.5 µM
- inverse value of IC50 ratio (measure for selective inhibition of ECs compared to SMCs) (SMCs [2]; from cited IC50 values): 3.0
- IC50 ratio (measure for selective inhibition of SMCs compared to ECs) (SMCs [2]; from cited IC50 values for ECs and SMCs): 0.33
- IC50 (ECs): 17.9 µM
- Efficiency towards ECs ([3]; 1 minus fraction of surviving ECs): 1-0.51 = 0.49
- Percentage of surviving ECs ([3]; HUVECtert, 48 h, resazurin): 0.51 (51%)
- inverse value of activity ratio (factor of selective inhibition of ECs relative to SMCs) (SMCs in relation to ECs; inverse of 0.39): approximately 2.5
- Efficiency towards SMCs (rat aortic SMCs; 1 minus fraction of surviving SMCs): 1-0.81 = 0.19
- Percentage of surviving SMCs (rat aortic SMCs; rat aortic SMCs, 20 ng/mL PDGF, 48 h, resazurin): 0.81 (81%)
